The source of these data is a melting point compilation (Tetko et al.; mined from patent text by program, amines drawn as free bases though some values may be those of a salt).

Broadly, the melting point is the temperature of the solid-liquid transition. On to `Cc1ccc(Oc2cccc(-c3cccc(C(=O)NCCC#N)c3)n2)c(C)c1`, for which the melting point was in the range of 114 to 115 °C.

In the case of `CC(C)C1(C(=O)O)CCCCC1`, the melting point is 102 °C.

`Fc1ccc(CN2CCC(Nc3ccc(C(F)(F)F)nn3)CC2)cc1` yielded a melting point of 163 to 165 °C.

`Cc1c(C(=O)Nc2ccc(N3CCC(c4ccccc4)CC3)c(C#N)c2)cnn1-c1ccc(Cl)cc1` registered a melting point of 186 to 188 °C.

On to `COC(=O)C1=C(C)NC(C)=C(C(=O)n2ccnc2)C1c1cccc2nonc12` (stereo unspecified), for which the melting point came to 195 °C.

Take `CNCC1Cc2cc(C)cc(-c3cccc(OC)c3OC)c2O1` (stereo unspecified): the melting point lay in the range of 85 to 89 °C.

In the case of `NC(=O)N1C(=O)C(C(=O)c2cc(Cl)cs2)c2cc(Cl)ccc21` (stereo unspecified), the melting point fell in the range of 212 to 214 °C.

The compound `CS(=O)c1nccc(N)n1` (stereo unspecified) registered a melting point of 158 to 159 °C.

For `Cc1cc(O)n2nc(SCc3ccccc3)nc2c1`, the melting point lay within 214 to 216 °C.

For `CCC(CC)(NC(=O)CCn1cnc(CC#N)c1)c1ccccc1`, the melting point was in the range of 121 to 122 °C.

For `CC(/C=C/C(=O)OC(C)(C)C)=C\c1ccc([N+](=O)[O-])cc1`, the melting point was in the range of 120 to 122 °C.

Consider `CC(=O)NC[C@H]1CN(c2ccc(N3C[C@H]4CN(C(=O)OCc5ccccc5)C[C@H]4C3)cc2)C(=O)O1`, for which the melting point was 135 to 140 °C.

`O=C1CCC=C2N=CC=NC=C12`: the melting point fell in the range of 141 to 146 °C.

`COc1ccc(C(=O)N2CCc3cc(O)c(OC)cc3C2=O)cc1` had a melting point of 224 to 225 °C.

`CC(C)n1nc(-c2c(-c3ccccc3)nn3ccc(OCC(=O)NC4CC4)cc23)ccc1=O` showed a melting point of 199 to 200 °C.

As to `COc1cn(-c2cccc3c2OC(F)(F)O3)nc(-c2ccnn2-c2ccccc2)c1=O`, the melting point was 181 to 183 °C.

The compound `CCOC(=O)CCNc1ncccc1NC(=O)c1ccc(Cl)cc1` gave a melting point of 124 to 125 °C.

As for `O=C(Nc1ccc(C(=O)N2CCCc3ccccc32)cc1)c1ccccc1`, the melting point fell in the range of 202 to 204 °C.

For `Cc1ccc(SCC(=O)O)o1`, the melting point fell in the range of 35 to 36 °C.

For `CCOP(=O)(OCC)N1CC2(C(=O)OC)COc3cc(C(F)(F)F)ccc3C2=N1` (stereo unspecified), the melting point was in the range of 85 to 86 °C.

Regarding `COc1cc(N)c(Cl)cc1C(=O)NCC1CCN(CCCCCC(=O)c2ccc(O)cc2O)CC1`, the melting point was 96 to 99 °C.

Consider `COC(Nc1ccccc1)(OC)C1(Br)C=CN=C(C(=O)c2ccccc2)C1` (stereo unspecified), for which the melting point lay in the range of 189 to 190 °C.

`Cc1ccc2nc(-c3ccc(N)c(I)c3)sc2c1` came in with a melting point of 176 to 178 °C.

As for `CN1CCN(c2cccc3nc4n(c(=O)c23)-c2ccc(F)cc2C4=O)CC1`, the melting point fell in the range of 232 to 233 °C.

As to `CSc1ccc(-c2nn(CC=Cc3ccccc3)c(=O)cc2-c2ccc(Cl)cc2)cc1`, the melting point was in the range of 109 to 110 °C.

Compound `C=C(C)c1ccccc1S(=O)(=O)NC(=O)Nc1nc(C)cc(C)n1` gave a melting point of 177 to 183 °C.

For the compound `C[C@@H](CO)Oc1cc(Oc2ccc(C(=O)N3CCC3)cc2F)cc(C(=O)Nc2ccn(C)n2)c1`, the melting point is 142 °C.

Take `Cc1ccc(NC(=O)NN(C(=O)c2ccccc2)C(C)(C)C)cc1`: the melting point lay in the range of 208 to 210 °C.

Regarding `C[C@@H](Nc1ccc([N+](=O)[O-])cc1)C(=O)O`, the melting point was in the range of 238 to 244 °C.

Take `Cc1ccc(C(=O)Nc2nc(C(Cl)(Cl)Cl)ns2)cc1`: the melting point is 127 °C.

`CCCCn1c(=O)c(C(=O)OCC)c(N)c2cnc(C)nc21` yielded a melting point of 214 to 216 °C.

Take `O=C1Cc2cccc(Oc3c(Cl)cccc3Cl)c2N1`: the melting point is more than 230 °C.

As for `CCCCCCCCCCCCCCCC(CC)OCC(=O)c1ccccc1` (stereo unspecified), the melting point lay within 50 to 52 °C.

As for `CCC(CC)c1ccc(Cl)c2nc(Oc3c(C)cc(Cl)cc3Cl)n(C)c12`, the melting point fell in the range of 155 to 157 °C.

`CCCn1nc(C)c2c1C1=NC(C)CN1C(C)=N2` (stereo unspecified) registered a melting point of 85 to 90 °C.

In the case of `Cc1ccccc1COC(=O)c1ccc(C(=O)N2Cc3ccccc3Cc3ccccc32)cc1`, the melting point was 140 to 142 °C.

Compound `O=C(CCN1CCN(c2cccc(C(F)(F)F)c2)CC1)c1ccc2oc3ccc(C(=O)CCN4CCN(c5cccc(C(F)(F)F)c5)CC4)cc3c(=O)c2c1` showed a melting point of 166 to 167 °C.

On to `NS(=O)(=O)c1ccc(-c2cnn(-c3ccc(F)c(Cl)c3)c(=O)c2-c2ccc(F)cc2)cc1`, for which the melting point was 208 to 210 °C.

For the compound `O=C(NOC1CCCCO1)c1ccccc1` (stereo unspecified), the melting point fell in the range of 130 to 134 °C.

For `Cc1cc(Nc2nc(-c3ccncc3)nc3ccccc23)[nH]n1`, the melting point is 286 to 289 °C.

In turn, `CN1C(=O)[C@H](NC(=O)Nc2cccc(CC(=O)O)c2)N=C(c2ccccc2)c2ccccc21` showed a melting point of 167 to 170 °C.

`CC(=O)Nc1ccc(O[C@@H]2CNC[C@H]2O)cc1` (relative stereo) gave a melting point of 200 °C.

In the case of `COc1ccc(C(=O)N(C)c2ccc(CO)cc2)cc1`, the melting point is 85 to 90 °C.

For `CCn1nc(C(=O)NC2CN(C)CCN(C(=O)c3ccccc3)C2)c2ccccc21` (stereo unspecified), the melting point was 100 to 103 °C.

On to `C#Cc1ccc2c(c1)C(=O)N(c1ccc3c(c1)C=C3)C2=O`, for which the melting point was in the range of 191 to 192 °C.

For `O=C1C(=O)N(CCN2CCN(Cc3ccc(F)cc3)CC2)c2ccccc21`, the melting point fell in the range of 146 to 147 °C.

Turning to `Cc1cc(-c2ccc(C(F)(F)F)cc2)nc(-c2ccnc(-c3cccc(S(N)(=O)=O)c3)n2)c1`, the melting point is more than 250 °C.

With `CC(C)(C)c1cc(CCC(=O)NCCNCCNCCNC(=O)CCc2cc(C(C)(C)C)c(O)c(C(C)(C)C)c2)cc(C(C)(C)C)c1O`, the melting point was 80 to 110 °C.

In the case of `COCCOc1ccccc1-c1cc2[nH]c3ccc(OCc4ccccc4)cc3c2c2c1C(=O)NC2=O`, the melting point was 157 to 159 °C.

`CCCn1c(=O)n2c(=O)n(COCc3ccccc3)nc2c2c1ncn2COCc1ccccc1` registered a melting point of 88.9 to 90.3 °C.

`CC1=C(c2ccc(C(=O)N3Cc4cccn4Cc4ccccc43)cc2C)C(C)CCC1` (stereo unspecified) came in with a melting point of 133 to 135 °C.

With `CC(C)Cn1c2c(c(=O)n(C)c1=O)C(=O)C(=Cc1cccnc1)S2`, the melting point fell in the range of 215 to 216 °C.

Take `Cc1cccc(-c2csc(N3CCN(C(=O)Nc4onc(C)c4C)CC3)n2)c1`: the melting point is 175 to 176 °C.

Turning to `COC(=O)[C@@H]1CCCN1C(=O)c1ccc(OC)c(O)c1[N+](=O)[O-]`, the melting point was in the range of 108 to 110 °C.

`CCOC(=O)c1ccc(OCc2nc(-c3ccccc3)oc2C)c(OC)c1` yielded a melting point of 103 to 104 °C.

As to `CCOC(=O)NC(=S)Nc1cc(NC(=O)OC)ccc1NC(=O)CN(C)C`, the melting point was in the range of 171 to 172 °C.

As to `CCc1nc2c(C)cc(C)nc2n1-c1ccc(CCNC(=O)NS(=O)(=O)c2cc3ccccc3s2)cc1`, the melting point was in the range of 128 to 130 °C.

`Fc1ccccc1-c1c(OCc2ncnn2CC(F)F)nn2c(-c3ccccc3F)nncc12` came in with a melting point of 179 to 180 °C.

The compound `CC1=C(C)CC(C(=O)O)OC1` (stereo unspecified) yielded a melting point of 82 to 84 °C.

Take `NS(=O)(=O)c1cc2cc3c(cc2n1S(=O)(=O)c1ccccc1)OCO3`: the melting point is 229 to 232 °C.

`O=C(N[C@H](Cc1ccc(C(F)(F)F)cc1)[C@@H](O)c1ccc(F)c(F)c1)c1ccc(F)c2ccccc12` (racemic) had a melting point of 197 to 198 °C.
